Measurements from US20220370396A1, “METHODS FOR MODULATING CONDITIONS OF THE EYE USING NOVEL LATANOPROST COMPOUND OPHTHALMIC COMPOSITIONS” (Somerset Therapeutics LLC, priority 2021, published 2022).

Assay: Comparative stability testing of latanoprost formulations under refrigerated, room temperature and accelerated conditions
Type: physicochemical
Method: Formulations prepared according to the invention as described in Example 1 were tested for stability under refrigerated conditions ((2-8° C.), […] (25° C./60% relative humidity) and accelerated conditions (40° C./75% relative humidity) to determine stability of such formulations. The stability data of the composition provided in Table 1 of Example 1 was also compared with Reference Product (XALATAN®). Stability results are provided in Table 3.
The stability data for the composition of Table 1, Example 1 (comprising the PCCC polyoxyl 40 hydrogenated castor oil), was compared to the composition of Table 2, Example 2, comprising the polysorbate-80.

polysorbate-80
Effect of surfactant on stabilization of latanoprost formulations: marginal effect on stabilization
